{"source": "patent US12168008B2", "about": "“Oxabicycloheptanes for modulation of immune response” (LIXTE BIOTECHNOLOGY, INC., priority 2016, dated 2024)", "key": {"clinical": {"assay": "clinical", "assay_type": "in vivo, human", "details": "for Cmax / AUC / Tmax: endothall after LB-100 2.33 mg/m^2", "procedure": "The main objective was to determine the safety, tolerability, and maximum tolerated dose of LB-100 given intravenously daily for three consecutive days every 3 weeks. The secondary objectives were to document any evidence of potential anti-tumor activity and obtain pharmacokinetic data on LB-100 and a metabolite, endothall, in patients receiving LB-100 at the MTD (Quang et al., 2016).\nThe plasma concentrations of LB-100 and endothall were measured (Quang et al., 2016) prior to and over 4 hours after completion of the 2-hour infusion at the MTD of 2.33 mg/m2 of LB-100 on day 1 in one patient and on day 1 and 3 in two patients. […] Plasma concentrations of endothall were low throughout the infusion, being below the lower limit of detection (5 ng/mL) in one patient."}, "solid tumor": {"test_system": "solid tumor", "details": "cited from earlier work"}, "[1]": {"details": "human, in vivo; cited from earlier work"}}}
{"molecule": "O=C(O)[C@@H]1[C@H](C(=O)O)[C@H]2CC[C@@H]1O2", "note": "[endothall]", "values": [{"measurement": "Cmax", "setting": "clinical; subject 001-0030, day 1, N-D = below lower limit of quantification (5 ng/ml)", "result": "N-D^a"}, {"measurement": "Cmax", "setting": "clinical; subject 001-0030, day 3, N-D = below lower limit of quantification (5 ng/ml)", "result": "N-D^a"}, {"measurement": "AUC", "setting": "clinical; subject 002-0028, day 1", "result": 22, "unit": "ng·h/mL"}, {"measurement": "Cmax", "setting": "clinical; subject 002-0028, day 1", "result": 11.5, "unit": "ng/mL"}, {"measurement": "Tmax", "setting": "clinical; subject 002-0028, day 1", "result": 4, "unit": "h"}, {"measurement": "AUC", "setting": "clinical; subject 002-0028, day 3", "result": 143, "unit": "ng·h/mL"}, {"measurement": "Cmax", "setting": "clinical; subject 002-0028, day 3", "result": 34.3, "unit": "ng/mL"}, {"measurement": "Tmax", "setting": "clinical; subject 002-0028, day 3", "result": 4, "unit": "h"}, {"measurement": "AUC", "setting": "clinical; subject 003-0029, day 1", "result": 28, "unit": "ng·h/mL"}, {"measurement": "Cmax", "setting": "clinical; subject 003-0029, day 1", "result": 14.8, "unit": "ng/mL"}, {"measurement": "Tmax", "setting": "clinical; subject 003-0029, day 1", "result": 4, "unit": "h"}, {"measurement": "plasma concentration of endothall", "setting": "clinical; one patient, after LB-100 2.33 mg/m2, lower limit of detection", "result": "< 5", "unit": "ng/mL"}, {"measurement": "maximal concentration of endothall", "setting": "clinical; other two patients, last sampling time point (4 h)", "result": 34.7, "unit": "ng/mL"}]}
{"molecule": "C[C@@](O)(/C=C/[C@H]1CC=CC(=O)O1)[C@@H](C[C@@H](O)\\C=C/C=C\\C=C\\CO)OP(=O)(O)O", "note": "[fostriecin]", "values": [{"measurement": "dose-limiting toxicity (DLT)", "setting": "solid tumor; in vivo", "result": "without dose-limiting toxicity"}, {"measurement": "disease stability", "setting": "solid tumor; of 46 solid tumor patients", "result": "16 (34.8%) patients (%)"}]}
{"molecule": "ipilimumab: human cytotoxic T-lymphocyte antigen 4 (CTLA-4)-blocking antibody", "values": [{"measurement": "incidence of death", "setting": "[1]", "result": 2.1, "unit": "%"}, {"measurement": "patients with grade 3 or 4 adverse events", "setting": "[1]", "result": "up to 15%"}]}
